Measured values published in ChEMBL document CHEMBL1201862, “PubChem BioAssay data set” (2004).
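Dose response: 5 concentrations. Exposure: 48 h. Format: 96-well plates. Endpoint: linear interpolation; highest concentration if not reached. GI50: concentration for 50% inhibition of growth.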 Activity calls are given as the source filed them. Rule as the data show it: active = GI50 up to about 1.1 µM and inactive = higher.

Experiments:
Assay in all cases: DTP human tumour cell line panel, 48 h
786-0 = test system: 786-0
A498 = test system: A498
ACHN = test system: ACHN
CAKI-1 = test system: CAKI-1
DU-145 = test system: DU-145
EKVX = test system: EKVX
HCT-116 = test system: HCT-116
MCF7 = test system: MCF7
MDA-MB-435 = test system: MDA-MB-435
MOLT-4 = test system: MOLT-4
NCI-H226 = test system: NCI-H226
OVCAR-3 = test system: OVCAR-3
OVCAR-4 = test system: OVCAR-4
PC-3 = test system: PC-3
SK-MEL-28 = test system: SK-MEL-28
SK-MEL-2 = test system: SK-MEL-2
SK-MEL-5 = test system: SK-MEL-5
SK-OV-3 = test system: SK-OV-3
TK-10 = test system: TK-10
UACC-257 = test system: UACC-257

Measured: GI50

COc1cc(/C=C(\C#N)c2nc3ccccc3o2)ccc1O
inactive: 786-0 24.9 µM | A498 16.3 µM | ACHN 19 µM | CAKI-1 17.3 µM | DU-145 25.6 µM | EKVX 21.6 µM | HCT-116 16.5 µM | MCF7 10 µM | MDA-MB-435 16.4 µM | MOLT-4 28.5 µM | NCI-H226 15.4 µM | OVCAR-3 14 µM | OVCAR-4 11.2 µM | PC-3 21.2 µM | SK-MEL-28 17.7 µM | SK-MEL-2 18 µM | SK-MEL-5 12.6 µM | SK-OV-3 17.7 µM | TK-10 24.4 µM | UACC-257 23.5 µM

CC(=O)OCC1OC(n2cc(F)c(=O)[nH]c2=O)C(OC(C)=O)C1OC(C)=O (stereo not given)
inactive: 786-0 12.2 µM | A498 61.2 µM | ACHN 12.9 µM | CAKI-1 25.9 µM | DU-145 70.5 µM | EKVX > 75.2 µM | HCT-116 4.25 µM | MCF7 1.71 µM | MDA-MB-435 17 µM | MOLT-4 4.13 µM | NCI-H226 59.8 µM | OVCAR-3 23.3 µM | OVCAR-4 30.3 µM | PC-3 73.8 µM | SK-MEL-28 25.2 µM | SK-MEL-2 28.2 µM | SK-MEL-5 56 µM | SK-OV-3 > 73.5 µM | TK-10 > 100 µM | UACC-257 47.3 µM

Cn1c2c(c3ccccc31)CCN(CCCCN1CCN(c3ccccc3)CC1)C2=O
inactive: 786-0 29.6 µM | A498 45 µM | ACHN > 100 µM | CAKI-1 56.4 µM | DU-145 35.9 µM | EKVX > 38.5 µM | HCT-116 12.9 µM | MCF7 19.2 µM | MDA-MB-435 17.5 µM | MOLT-4 7.38 µM | NCI-H226 > 41.8 µM | OVCAR-3 57.3 µM | OVCAR-4 42.1 µM | PC-3 11.7 µM | SK-MEL-28 15.8 µM | SK-MEL-2 24 µM | SK-MEL-5 5.69 µM | SK-OV-3 > 100 µM | TK-10 45 µM | UACC-257 5.86 µM

Cc1nc2ccccc2n1Cc1nnc2n1N=C(c1ccccc1)CS2
inactive: 786-0 44 µM | A498 43.8 µM | ACHN 47.6 µM | CAKI-1 37.2 µM | DU-145 37.5 µM | EKVX 34.3 µM | HCT-116 27.7 µM | MCF7 27.4 µM | MDA-MB-435 32.7 µM | MOLT-4 27.2 µM | NCI-H226 > 100 µM | OVCAR-3 35.2 µM | OVCAR-4 45.1 µM | PC-3 16.7 µM | SK-MEL-28 50.1 µM | SK-MEL-2 17 µM | SK-MEL-5 29.2 µM | SK-OV-3 > 100 µM | TK-10 40.1 µM | UACC-257 22.5 µM

NC12Oc3cc(O)cc(O)c3C1(c1ccc(Cl)cc1)c1c(O)cc(O)cc1O2 (stereo not given)
inactive: 786-0 61.8 µM | A498 > 100 µM | ACHN > 100 µM | CAKI-1 > 100 µM | DU-145 > 100 µM | EKVX 71.8 µM | HCT-116 46 µM | MCF7 59.8 µM | MDA-MB-435 46.8 µM | MOLT-4 27.9 µM | NCI-H226 > 100 µM | OVCAR-3 47.6 µM | OVCAR-4 27.5 µM | PC-3 43 µM | SK-MEL-28 61.2 µM | SK-MEL-2 36.6 µM | SK-MEL-5 37.5 µM | SK-OV-3 > 100 µM | TK-10 66.8 µM | UACC-257 79.1 µM

Cc1ccc(CN2CCN(Cc3ccc(C)o3)C(C)C2)o1 (stereo not given)
inactive: 786-0 > 100 µM | A498 > 100 µM | ACHN > 100 µM | CAKI-1 > 100 µM | DU-145 > 100 µM | EKVX > 100 µM | HCT-116 > 100 µM | MCF7 > 100 µM | MDA-MB-435 > 100 µM | MOLT-4 > 100 µM | NCI-H226 > 100 µM | OVCAR-3 > 100 µM | OVCAR-4 > 100 µM | PC-3 > 100 µM | SK-MEL-28 > 100 µM | SK-MEL-2 > 100 µM | SK-MEL-5 > 100 µM | SK-OV-3 > 100 µM | TK-10 > 100 µM | UACC-257 > 100 µM

COCC1OC(OC2C3=C(C(C)C)CCC3(C)/C=C3\C(CCC3(O)COC)C(C)C2O)C(O)C2OC3OC12OC3(C)C1CO1 (stereo not given)
inactive: 786-0 60.8 µM | A498 44 µM | ACHN 47.2 µM | CAKI-1 21.8 µM | DU-145 72.6 µM | EKVX 37.5 µM | HCT-116 34 µM | MCF7 45.5 µM | MDA-MB-435 31 µM | MOLT-4 27.6 µM | NCI-H226 16.3 µM | OVCAR-3 26.4 µM | OVCAR-4 25.5 µM | PC-3 35 µM | SK-MEL-28 31.6 µM | SK-MEL-2 83.6 µM | SK-MEL-5 18 µM | SK-OV-3 51.8 µM | TK-10 29.9 µM | UACC-257 40.3 µM
